In patent publication US20050245527A1, “Nitrogen containing heterocyclic compounds and medicines containing the same” (priority 2002, published 2005) one finds ED50 and IC50 data, which are given here for 41 compounds.

The structures appear in SMILES notation. Counter-ions that a name gives are not always drawn. Some results are limits rather than exact numbers.

For orientation: IC50 means the concentration that inhibits the measured activity by half.

The first test concerns left saphenous nerve of rats (ectopic firing). The experiment in a line: Inhibition of ectopic firing. To be noted: Rattus norvegicus, iv; rats with cut left saphenous nerve, urethane anesthesia, compound via catheter in right cervical vein, number of firings in 10 seconds; read-out: Inhibition of ectopic firing (ID50). The test is classed as in vivo. The protocol: <Inhibition of Ectopic Firing>
(1) The inhibitory effect on ectopic firing was evaluated by the following method, with reference to Burchiel, K J., Exp. Neurol., 102, 249-253 (1988).
(2) The left saphenous nerve of rats, in which ectopic firing was observed, was cut near the knee joint, and approximately 3 mm was cut off to avoid reattachment of the cut nerve. After more than a week, the left saphenous nerve was exposed under urethane (1 g/kg body weight) anesthesia, and the proximal part up to approximately 1 cm from the cut site was detached from the surrounding tissue. A catheter was inserted in the right cervical vein beforehand for administration of the compound.
(3) The detached nerve was placed on a platinum hook electrode and wetted with liquid paraffin to avoid drying of the nerve. The electrode was connected to a microelectrode amplifier, and the change in potential was recorded from an oscilloscope through an A/D converter onto a computer. The recorded nerve firing was evaluated based on the number of firings in 10 seconds, using analyzing software (AcqKnowledge).
For the compound `O=c1ccnc(CN2CCC(COc3ccccc3F)CC2)[nH]1` [Example 137, 2-[4-(2-Fluorophenoxymethyl)piperidino]methyl-3H-pyrimidin-4-one], the ED50 is 0.5 to 1 mg/kg.

As for `O=c1[nH]cncc1CN1CCC(COc2ccccc2F)CC1` [Example 230, 5-[4-(2-Fluorophenoxymethyl)piperidino]methyl-3H-pyrimidin-4-one], the ED50 is < 0.5 mg/kg.

In the case of `Cc1ccccc1OCC1(C#N)CCN(Cc2ccc[nH]c2=O)CC1` [Example 122, 1-(2-Oxo-1,2-dihydro-3-pyridylmethyl)-4-(2-methylphenoxymethyl)piperidine-4-carbonitrile], the ED50 is < 0.5 mg/kg.

On to `O=c1[nH]cccc1CN1CCC(CCc2ccccc2F)(COc2ccccc2F)CC1` [Example 127, 3-[4-(2-Fluorophenoxymethyl)-4-[2-(2-fluorophenyl)ethyl]piperidino]methyl-1H-pyridin-2-one], for which the ED50 was in the range of 0.5 to 1 mg/kg. Turning to `O=C(Cc1ccccc1F)C1CCN(CCc2cncc(=O)[nH]2)CC1` [Example 237, 6-[2-[4-[2-(2-Fluorophenyl)acetyl]piperidino]ethyl]-1H-pyrazin-2-one], the ED50 lay in the range of 0.5 to 1 mg/kg. On to `O=c1cncc(CCN2CCC(/C=C/c3ccccc3F)CC2)[nH]1` [Example 234, (E)-6-[2-[4-(2-(2-Fluorophenyl)vinyl]piperidino]ethyl]-1H-pyrazin-2-one], for which the ED50 was in the range of 0.5 to 1 mg/kg. As to `O=c1cncc(CCN2CCC(COc3ccc(F)cc3)CC2)[nH]1` [Example 246, 6-[2-[4-(4-Fluorophenoxymethyl)piperidino]ethyl]-1H-pyrazin-2-one], the ED50 lay in the range of 0.5 to 1 mg/kg. Still for that read-out and setting: the result for `O=c1[nH]ccnc1CN1CCC(COc2ccc(F)cc2F)CC1` [Example 163, 3-[4-(2,4-Difluorophenoxymethyl)piperidino]methyl-1H-pyrazin-2-one] reads < 0.5 mg/kg. Same read-out and setting: the result for `O=c1[nH]cccc1CN1CCC(CCc2ccccc2)(COc2ccccc2F)CC1` [Example 257, 3-[4-(2-Fluorophenoxymethyl)-4-(2-phenylethyl)piperidino]methyl-1H-pyridin-2-one] reads < 0.5 mg/kg; that for `Cc1ccccc1OCC1(CCc2ccccc2F)CCN(Cc2ccc[nH]c2=O)CC1` [Example 128, 3-[4-[2-(2-Fluorophenyl)ethyl]-4-(2-methylphenoxymethyl)piperidino]methyl-1H-pyridin-2-one], 0.5 to 1 mg/kg. Still for that read-out and setting: the value for `O=c1[nH]ccnc1CN1CCC(OCc2ccccc2F)CC1` [Example 141, 3-[4-(2-Fluorobenzyloxy)piperidino]methyl-1H-pyrazin-2-one] was < 0.5 mg/kg. Turning to `Cc1ccccc1OCC1(O)CCN(Cc2ccc[nH]c2=O)CC1` [Example 252, 3-[4-Hydroxy-4-(2-methylphenoxymethyl)piperidino]methyl-1H-pyridin-2-one], the ED50 is 0.5 to 1 mg/kg.

For `O=c1cncc(CCN2CCC(COc3ccccc3F)CC2)[nH]1` [Example 233, 6-[2-[4-(2-Fluorophenoxymethyl)piperidino]ethyl]-1H-pyrazin-2-one], the ED50 was < 0.5 mg/kg. On to `Cc1ccccc1C#CC1(O)CCN(Cc2ccc[nH]c2=O)CC1` [Example 259, 3-[4-Hydroxy-4-[(2-methylphenyl)ethynyl]piperidino]methyl-1H-pyridin-2-one], for which the ED50 was < 0.5 mg/kg. The same measure, in the same setting: the result for `O=c1[nH]ccnc1CN1CCC(CC(F)c2ccccc2F)CC1` (centres unmarked) [Example 178, 3-[4-[2-Fluoro-2-(2-fluorophenyl)ethyl]piperidino]methyl-1H-pyrazin-2-one] reads < 0.5 mg/kg; that for `O=c1nccc(CCN2CCC(COc3ccccc3F)CC2)[nH]1` [Example 181, 4-[2-[4-(2-Fluorophenoxymethyl)piperidino]ethyl]-3H-pyrimidin-2-one], < 0.5 mg/kg.

Turning to `O=C(CC1CCN(Cc2ncc[nH]c2=O)CC1)c1ccccc1F` [Example 139, 3-[4-[2-(2-Fluorophenyl)-2-oxoethyl]piperidino]methyl-1H-pyrazin-2-one], the ED50 lay in the range of 0.5 to 1 mg/kg.

The subject of another test is sodium channels.
Test: not given
In kind it is cell-based. The settings on record: read-out: IC50 (μM), sodium channel-inhibiting activity; rat fetal cultured hippocampal neurons, SBFI fluorescence in the presence of 4-aminopyridine, 5 minutes after addition, 1 μM tetrodotoxin = 100%.
On to `Cn1c(CCN2CCC(COc3ccccc3F)CC2)cncc1=O` [Example 249, 6-[2-[4-(2-Fluorophenoxymethyl)piperidino]ethyl]-1-methyl-1H-pyrazin-2-one], for which the IC50 is 3.2 µM.

Regarding `O=c1[nH]ccnc1CN1CCOC(/C=C/c2ccccc2F)C1` (centres unmarked) [Example 341, (E)-3-[3-[2-(2-Fluorophenyl)vinyl]morpholin-1-yl]methyl-1H-pyrazin-2-one], the IC50 turned out to be 7.1 µM. On to `O=c1[nH]ccnc1CN1CCC(CS(=O)(=O)c2ccccc2F)CC1` [Example 338, 3-[4-[(2-Fluorophenylsulfonyl)methyl]piperidino]methyl-1H-pyrazin-2-one], for which the IC50 worked out at 9.8 µM. `N#Cc1ccccc1OCC1CCN(Cc2ncc[nH]c2=O)CC1` [Example 166, 3-[4-(2-Cyanophenoxymethyl)piperidino]methyl-1H-pyrazin-2-one]: the half-maximal inhibitory concentration (IC50) stood at 8.7 µM. On the same count and under the same terms, the value for `O=c1[nH]ccnc1CN1CCC(C(Cc2ccccc2F)=NO)CC1` [Example 202, 3-[4-[1-Hydroxyimino-2-(2-fluorophenyl)ethyl]piperidino]methyl-1H-pyrazin-2-one] was 4.9 µM. Still for that read-out and setting: the value for `O=c1[nH]ccnc1CN1CCC(C[S+]([O-])c2ccccc2F)CC1` (centres unmarked) [Example 337, 3-[4-[(2-Fluorophenylsulfinyl)methyl]piperidino]methyl-1H-pyrazin-2-one] was 6.5 µM. In the case of `COc1ccccc1CCC1CCCN(Cc2ncc[nH]c2=O)C1` (centres unmarked) [Example 155, 3-[3-[2-(2-Methoxyphenyl)ethyl]piperidino]methyl-1H-pyrazin-2-one], the half-maximal inhibitory concentration (IC50) amounted to 3.5 µM. Still for that read-out and setting: the result for `O=C(Cc1ccccc1Br)C1CCN(Cc2ncc[nH]c2=O)CC1` [Example 362, 3-[4-[2-(2-Bromophenyl)acetyl]piperidino]methyl-1H-pyrazin-2-one] reads 4.5 µM.

On to `CON=C(Cc1ccccc1F)C1CCN(Cc2ncc[nH]c2=O)CC1` [Example 203, 3-[4-[2-(2-Fluorophenyl)-1-(methoxyimino)ethyl]piperidino]methyl-1H-pyrazin-2-one], for which the IC50 was 2.3 µM.

As to `CC(Oc1ccccc1F)C1CCN(Cc2ncc[nH]c2=O)CC1` (centres unmarked) [Example 175, 3-[4-[1-(2-Fluorophenoxy)ethyl]piperidino]methyl-1H-pyrazin-2-one], the IC50 was determined as 2.6 µM. Take `O=c1cncc(CCN2CCC(O)(C#Cc3ccccc3F)CC2)[nH]1` [Example 120, 6-[2-[4-Hydroxy-4-[(2-fluorophenyl)ethynyl]piperidino]ethyl]-1H-pyrazin-2-one]: the IC50 was found to be 8.5 µM.

As for `O=c1[nH]ccnc1CN1CCC2(CC1)CC(Oc1ccccc1F)C2` [Example 226, 3-[2-(2-Fluorophenoxy)-7-azaspiro[3.5]non-7-yl]methyl-1H-pyrazin-2-one], the concentration for half-maximal inhibition (IC50) stood at 4.5 µM. On the same count and under the same terms, the result for `Cc1ccccc1C#CC1(O)CCN(Cc2ncc[nH]c2=O)CC1` [Example 218, 3-[4-(2-Methylphenyl)ethynyl-4-hydroxypiperidino]methyl-1H-pyrazin-2-one] reads 3.6 µM; that for `O=C(Cc1ccccc1F)C1(F)CCN(Cc2ncc[nH]c2=O)CC1` [Example 370, 3-[4-Fluoro-4-[2-(2-fluorophenyl)acetyl]piperidino]methyl-1H-pyrazin-2-one], 9.6 µM; that for `O=C(Cc1cccc(F)c1)C1CCN(Cc2ncc[nH]c2=O)CC1` [Example 191, 3-[4-[2-(3-Fluorophenyl)acetyl]piperidino]methyl-1H-pyrazin-2-one], 7.1 µM.

Regarding `O=c1[nH]ccnc1CN1CCC([S+]([O-])Cc2ccccc2F)CC1` (centres unmarked) [Example 398, 3-[4-(2-Fluorobenzylsulfinyl)piperidino]methyl-1H-pyrazin-2-one], the half-inhibitory concentration (IC50) turned out to be 3.4 µM. As to `COc1cccc(OCC2CCN(Cc3ncc[nH]c3=O)CC2)c1` [Example 161, 3-[4-(3-Methoxyphenoxymethyl)piperidino]methyl-1H-pyrazin-2-one], the half-inhibitory concentration (IC50) stood at 3.5 µM. Still for that read-out and setting: the result for `Cc1ccccc1CCC1(O)CCN(Cc2ccc[nH]c2=O)CC1` [Example 125, 3-[4-Hydroxy-4-[2-(2-methylphenyl)ethyl]piperidino]methyl-1H-pyridin-2-one] reads 5 µM. As for `O=c1[nH]ccnc1CN1CCOC(COc2ccccc2F)C1` (centres unmarked) [Example 342, 3-[3-(2-Fluorophenoxymethyl)morpholin-1-yl]methyl-1H-pyrazin-2-one], the 50% inhibitory concentration (IC50) came out at 3 µM.

Take `O=C(Cc1ccccc1F)C1CCN(Cc2nc3ccccc3[nH]c2=O)CC1` [Example 206, 3-[4-[2-(2-Fluorophenyl)acetyl]piperidino]methyl-1H-quinoxalin-2-one]: the IC50 was 5.2 µM. Take `CC(c1ncc[nH]c1=O)N1CCC(COc2ccccc2F)CC1` (centres unmarked) [Example 395, 3-[1-[4-(2-Fluorophenoxymethyl)piperidino]ethyl]-1H-pyrazin-2-one oxalate]: the IC50 turned out to be 6.7 µM. The same measure, in the same setting: the value for `O=C1CN(Cc2ncc[nH]c2=O)CCC1CCc1ccccc1F` (centres unmarked) [Example 371, 3-[4-[2-(2-Fluorophenyl)ethyl]-3-oxopiperidino]methyl-1H-pyrazin-2-one] was 9 µM; that for `O=c1cncc(CCN2CCC(COc3ccccc3)CC2)[nH]1` [Example 245, 6-[2-[4-(Phenoxymethyl)piperidino]ethyl]-1H-pyrazin-2-one] was 4.4 µM. With `O=c1[nH]ccnc1CN1CCCC(COc2ccccc2F)CC1` (centres unmarked) [Example 388, 3-[4-(2-Fluorophenoxymethyl)azepan-1-yl]methyl-1H-pyrazin-2-one], the IC50 came to 4.7 µM.
